Patent US9783785B2, “Screening methods for detection of susceptibility to leukemia and lymphomas” (priority 2010, dated 2017)

How the values were obtained:
[1] = test system: mononuclear leukocytes of long-term survivors of acute lymphoblastic leukemia (ALL); test: cell surface phenotyping by flow cytometry, cells of ALL patients; format: cell-based, human; conditions: cells of leukemic patients in remission/long-term ALL survivors; compared to media only; days 1-4
Description: (§1) Subject to parental/patient consent, approximately 15 ml of blood was obtained from leukemic patients in remission, long-term survivors of acute lymphoblastic leukemia and normal volunteers. Additional “normal” control samples were collected from the first drawing of blood in sickle cell patients undergoing manual partial exchange transfusion, or samples of blood discarded by the blood bank from normal donors. Patient blood was placed into heparin (1000 USP u/ml). Peripheral blood mononuclear cells (PBMC) were isolated by density gradient centrifugation (400×g, 40 minutes, and 18° C.) with Ficoll Paque Plus (GE Healthcare, Amersham Biosciences; Uppsala, Sweden), followed by washing with phosphate-buffered saline. Plasma was also collected simultaneously and stored at −80° C. until use. […]
(§2) Frozen specimens were thawed in a 37° C. water bath with continuous agitation. […] These cells (frozen/thawed PBMC) were then assessed for viability by trypan blue dye exclusion, counted, and re-suspended in the medium for assay. […]
(§3) At time intervals of 24, 48, 72 and 96 hrs, cell surface phenotyping was performed by flow cytometry. […] Acquisition and Analysis was carried out on fluorescence activated cell sorting (FACS) BD FACS Canto II using FACSDiva v 6.1.2. […] Percentage of cells positive for CD10CD19, CD34CD19 and CD34CD117 were recorded.

[2] = test system: mononuclear cells from "normal"/sickle cell patients (controls); test: cell surface phenotyping by flow cytometry, control cells; format: cell-based, human; conditions: compared to media only, days 1-4
Description: as §1, §2, §3

Aflotoxin B1 [aflotoxin (AT)]
development of cell surface phenotypes characteristic of ALL (CD10/CD19, CD34/CD19, CD34/CD117) [1]: indiscriminately induced increased development
development of cell surface phenotypes characteristic of ALL (CD10/CD19, CD34/CD19, CD34/CD117) [2]: indiscriminately induced increased development
